Results published in patent publication US12139520B2 (priority 2020, dated 2024).
Like-named read-outs stand apart in the source and are kept apart here. Numbered stars: 1 amine (or outer) side, 2 acyl side, 3 side chain; on linkers, the order of the positions; unused ones are H or OH. Bridge positions count the residues as written; N and C are the ends. Square brackets hold non-standard residues; d marks the D form. Side chains are listed from the residue outwards. Peptide text beside a SMILES is read from it. * marks the point of attachment. C20 diacid = O=C(O)CCCCCCCCCCCCCCCCCCC(=O)*; γGlu = O=C(O)[C@H](CCC(=O)[*:2])N[*:1]; Hyp = O=C(O)[C@@H]1C[C@@H](O)CN1; AEEA = NCCOCCOCC(=O)O

Columns and labels:
hAMY3 receptor = molecular target: T1, hAMY3 receptor (Homo sapiens, UniProt O60896+P30988); experiment: cAMP assay for in vitro receptor activation, hAMY3-R; type: cell-based
T1 sequence (P30988 25-474): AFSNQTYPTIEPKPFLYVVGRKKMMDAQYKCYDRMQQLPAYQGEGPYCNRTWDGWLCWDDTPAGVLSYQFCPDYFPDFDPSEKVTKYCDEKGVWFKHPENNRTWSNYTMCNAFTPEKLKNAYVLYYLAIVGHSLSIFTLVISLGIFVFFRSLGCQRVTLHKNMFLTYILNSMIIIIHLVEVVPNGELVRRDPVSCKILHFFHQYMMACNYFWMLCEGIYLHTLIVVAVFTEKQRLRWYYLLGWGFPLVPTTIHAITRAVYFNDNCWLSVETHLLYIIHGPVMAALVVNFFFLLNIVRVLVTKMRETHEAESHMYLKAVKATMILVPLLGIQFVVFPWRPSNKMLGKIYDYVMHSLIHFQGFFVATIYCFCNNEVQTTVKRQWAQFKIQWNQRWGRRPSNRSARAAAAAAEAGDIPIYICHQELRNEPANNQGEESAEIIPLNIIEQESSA
T1 sequence (O60896 24-148 partner): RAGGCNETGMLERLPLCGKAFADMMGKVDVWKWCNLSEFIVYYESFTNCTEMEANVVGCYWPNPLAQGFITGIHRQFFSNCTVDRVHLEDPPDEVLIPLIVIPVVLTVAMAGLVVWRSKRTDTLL
Outline: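 Read-out is TR-FRET cAMP signal, recorded one hour after reagent addition, following 30 min room-temperature stimulation of stable hAMY3 cells with graded compound doses in casein/IBMX (0.5 mM) buffer.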

hAM1 receptor = hAM1 receptor (Homo sapiens, UniProt O60895+Q16602); experiment: cAMP assay for in vitro receptor activation, hAM1-R; type: cell-based
Chain of hAM1 receptor (Q16602 23-461): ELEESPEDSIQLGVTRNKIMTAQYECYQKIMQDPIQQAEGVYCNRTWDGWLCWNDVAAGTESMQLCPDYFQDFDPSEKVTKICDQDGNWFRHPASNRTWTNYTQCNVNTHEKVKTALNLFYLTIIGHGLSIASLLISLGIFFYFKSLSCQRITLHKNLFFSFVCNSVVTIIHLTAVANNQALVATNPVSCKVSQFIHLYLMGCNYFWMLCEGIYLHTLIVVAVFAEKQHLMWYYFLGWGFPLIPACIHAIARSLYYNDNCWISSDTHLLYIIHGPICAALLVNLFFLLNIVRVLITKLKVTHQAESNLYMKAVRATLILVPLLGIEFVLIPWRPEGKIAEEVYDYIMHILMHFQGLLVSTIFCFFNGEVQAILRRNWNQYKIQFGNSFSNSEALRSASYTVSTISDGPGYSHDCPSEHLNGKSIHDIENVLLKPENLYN
Chain of hAM1 receptor (O60895 43-175 partner): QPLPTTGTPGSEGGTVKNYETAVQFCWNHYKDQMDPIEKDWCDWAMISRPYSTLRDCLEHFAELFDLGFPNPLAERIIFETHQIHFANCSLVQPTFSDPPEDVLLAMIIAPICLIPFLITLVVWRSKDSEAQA
Outline: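 Stable hAM1 cells (monoclonal) plated 8000/well; buffer DPBS, 0.05% casein, 0.5 mM IBMX; cAMP read-out.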

[1] = Acute food intake study in lean rats; type: in vivo, rat; settings: single SC injection, lean healthy rats; for Average cumulative food intake: up to 48 h, P < 0.001 vs vehicle
Description: General Protocols for Acute Food Intake Study
The effect on cumulative food intake was measured in male Sprague Dawley rats (6 weeks of age, Taconic, Denmark) following a single dose using a fully automated food intake monitoring system (HM-2; MBRose ApS, Faaborg, Denmark), allowing for advanced synchronous real-time monitoring of food intake behaviour of individual animals. The animals were housed in groups of 4 in a light-, temperature-, and humidity-controlled room (a 12/12 LD cycle, lights on at 02:00 AM; 22±2° C.; 50% relative humidity). The mice had ad libitum access to regular chow diet (Altromin 1324, Brogaarden A/S, Lynge, Denmark) and domestic quality tap water. Mice arrived at day 7, and a minimum of 5 days of habituation to the system was allowed prior to beginning of the study. During these days, the animals were handled daily to accustom them to the experimental paradigm. On the day of dosing, the animals were randomized into groups according to body weight. Animals were fasted for four hours prior to dosing. Animals were dosed SC 30 or 180 min prior to lights out, and food intake data were collected automatically for a total of 48 h post-dosing with automatic food recordings every 5 min.

[2] = Chronic diet-induced obesity (DIO) study in rats; type: in vivo, rat; settings: for Average body weight day 28 (gram): P < 0.001 vs vehicle
Description: General Protocols for Chronic Diet-Induced Obesity (DIO) Study
Sprague-Dawley rats (Taconic, Denmark) arrived at the age of 5 weeks. After one week of acclimation, they were evenly grouped based on their baseline body weight and offered ad libitum access a two-choice diet consisting of chow pellet (Altromin #1324, Brogaarden, Lynge, Denmark) and a high palatable high sugar/fat diet (1:1:1 mixture of Nutella (Ferrero, Alba, Italy), peanut butter (PCD, Rotterdam, Netherlands) and powdered standard chow (Altromin #1324, Brogaarden, Lynge, Denmark); 29.3% fat, 33.2% carbohydrate, and 18% protein) for up to 36 weeks. The rats were pair-housed throughout the study under controlled environmental conditions (12-hour light/dark cycle, lights off at 15:00; 22±1° C.; 50±10% relative humidity). Body weight, food and water intake were monitored daily during the entire period of the study. One day before the experiment, the rats were randomized according to body weight into experimental groups (n=9-10), which received compound or vehicle SC. QD (once daily) for 28 days.

[3] = Physical stability of peptide analogues (Thioflavin T fibrillation); type: physicochemical; settings: maximum ThT signal normalized between hAMY maximum and buffer background; 40° C., shaking, four days; pH 7 per table title
Outline: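 Peptides in 50 mM sodium acetate pH 4 or 50 mM sodium phosphate pH 7 were preincubated 1 h, mixed with 4 μM ThT, held at 40° C with 700 rpm shaking before each read. Fluorescence (ex 450/em 480 nm) every 10 min for four days; LOESS-smoothed maximum signal normalized in percent between hAMY and buffer.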

[4] = 10 nmol/kg SC once daily for 28 days
[5] = cAMP assay, hAMY3 receptor, read-out: hAMY3R EC50
[6] = 1 nmol/kg SC once daily for 28 days
[7] = 3 nmol/kg SC once daily for 28 days

Row | EC50 (hAMY3 receptor; [5]) [nM] | Max ThT signal (%) [3] [%] | EC50 (hAM1 receptor; cAMP assay, hAM1 receptor, read-out: hAM1R EC50) [nM] | SMILES | EC50 (hAMY3 receptor) [nM] | EC50 (hAM1 receptor) [nM] | cumulative food intake, % to vehicle ([1]; 10 nmol/kg) [%] | Average cumulative food intake ([1]; 10 nmol/kg) [g] | body weight day 28, % to vehicle [2, 4] [%] | Average body weight day 28 (gram) [2, 4] [gram] | cumulative food intake, % to vehicle ([1]; 30 nmol/kg) [%] | Average cumulative food intake ([1]; 30 nmol/kg) [g] | body weight day 28, % to vehicle [2, 6] [%] | Average body weight day 28 (gram) [2, 6] [gram] | body weight day 28, % to vehicle [2, 7] [%] | Average body weight day 28 (gram) [2, 7] [gram]
1 | – | – | – | CC[C@H](C)[C@H](NC(=O)[C@H](CCC(N)=O)NC(=O)[C@H](CCC(=O)O)NC(=O)[C@H](C)NC(=O)[C@H](CC(C)C)NC(=O)[C@H](CCCNC(=N)N)NC(=O)[C@H](CCC(N)=O)NC(=O)[C@@H](NC(=O)[C@@H](NC(=O)[C@@H]1CSSC[C@H](NC(=O)[C@H](CCCCN)NC(=O)CC[C@H](NC(=O)CCCCCCCCCCCCCCCCCCC(=O)O)C(=O)O)C(=O)N[C@@H](CC(N)=O)C(=O)N[C@@H]([C@@H](C)O)C(=O)N[C@@H](C)C(=O)N[C@@H]([C@@H](C)O)C(=O)N1)[C@@H](C)O)C(C)C)C(=O)N[C@@H](C)C(=O)N[C@@H](CCC(N)=O)C(=O)N[C@@H](Cc1ccccc1)C(=O)N[C@H](C(=O)N[C@@H](CC(=O)O)C(=O)N[C@@H](CCCCN)C(=O)N[C@@H](CC(=O)O)C(=O)N[C@@H](CCCCN)C(=O)N[C@@H](CC(=O)O)C(=O)N[C@@H](CC(N)=O)C(=O)N[C@H](C(=O)N[C@@H](C)C(=O)N1CCC[C@H]1C(=O)N1CCC[C@H]1C(=O)N[C@H](C(=O)N[C@@H](CC(N)=O)C(=O)N[C@H](C(=O)NCC(=O)N[C@@H](CO)C(=O)N[C@@H](CC(N)=O)C(=O)NCC(=O)N1C[C@H](O)C[C@H]1C(N)=O)C(C)C)[C@@H](C)O)C(C)C)[C@@H](C)O [compound 78] ({C20 diacid-γGlu}-KCNTATCTVQRLAEQIAQFTDKDKDNVAPPTNVGSNG[Hyp]-NH2; disulfide 2-7) | 0.014 | > 5000 | 33.66 | 13.7 | 88.53 | 687 | – | – | – | – | – | –
2 | 0.011 | 5.800 | – | CC[C@H](C)[C@H](NC(=O)[C@H](CC(N)=O)NC(=O)[C@@H](NC(=O)[C@H](CCCNC(=N)N)NC(=O)[C@@H]1CCCN1C(=O)[C@H](C)NC(=O)[C@@H](NC(=O)[C@H](CC(N)=O)NC(=O)[C@H](CC(=O)O)NC(=O)[C@H](CCCCN)NC(=O)[C@H](CC(=O)O)NC(=O)[C@H](CCCCN)NC(=O)[C@H](CC(=O)O)NC(=O)[C@@H](NC(=O)[C@H](Cc1ccccc1)NC(=O)[C@H](CCC(N)=O)NC(=O)[C@H](Cc1ccc(O)cc1)NC(=O)[C@@H](NC(=O)[C@H](CCC(N)=O)NC(=O)[C@H](Cc1c[nH]cn1)NC(=O)[C@H](C)NC(=O)[C@H](CC(C)C)NC(=O)[C@H](CCCNC(=N)N)NC(=O)[C@H](CCC(N)=O)NC(=O)[C@@H](NC(=O)[C@@H](NC(=O)[C@@H]1CSSC[C@H](NC(=O)CN)C(=O)N[C@@H](CCCNC(=N)N)C(=O)N[C@@H](Cc2ccccc2)C(=O)NCC(=O)N[C@@H]([C@@H](C)O)C(=O)N1)[C@@H](C)O)C(C)C)[C@@H](C)CC)[C@@H](C)O)C(C)C)[C@@H](C)O)C(=O)NCC(=O)N1CCC[C@H]1C(=O)N[C@@H](CCC(N)=O)C(=O)NCC(=O)N1C[C@H](O)C[C@H]1C(N)=O [compound 46] (H-GCRFGTCTVQRLAHQIYQFTDKDKDNVAPRTNIGPQG[Hyp]-NH2; disulfide 2-7; N-terminus assumed) | – | – | 52.48 | 23.3 | 86.31 | 618 | 24.10 | 10.7 | 94.13 | 674 | 86.59 | 620
3 | 0.006 | – | > 5000 | CC[C@H](C)[C@H](NC(=O)[C@H](CCC(N)=O)NC(=O)[C@H](CCC(=O)O)NC(=O)[C@H](C)NC(=O)[C@H](CC(C)C)NC(=O)[C@H](CCCNC(=N)N)NC(=O)[C@H](CCC(N)=O)NC(=O)[C@@H](NC(=O)[C@@H](NC(=O)[C@@H]1CSSC[C@H](NC(=O)[C@@H](N)CCCCN)C(=O)N[C@@H](CC(N)=O)C(=O)N[C@@H]([C@@H](C)O)C(=O)N[C@@H](C)C(=O)N[C@@H]([C@@H](C)O)C(=O)N1)[C@@H](C)O)C(C)C)C(=O)N[C@@H](Cc1ccc(O)cc1)C(=O)N[C@@H](CCC(N)=O)C(=O)N[C@@H](Cc1ccccc1)C(=O)N[C@H](C(=O)N[C@@H](CC(=O)O)C(=O)N[C@@H](CCCCN)C(=O)N[C@@H](CC(=O)O)C(=O)N[C@@H](CCCCN)C(=O)N[C@@H](CC(=O)O)C(=O)N[C@@H](CC(N)=O)C(=O)N[C@H](C(=O)N[C@@H](C)C(=O)N1CCC[C@H]1C(=O)N1CCC[C@H]1C(=O)N[C@H](C(=O)N[C@@H](CC(N)=O)C(=O)N[C@H](C(=O)NCC(=O)N[C@@H](CO)C(=O)N[C@@H](CCCCNC(=O)COCCOCCNC(=O)COCCOCCNC(=O)CC[C@H](NC(=O)CCCCCCCCCCCCCCCCCCC(=O)O)C(=O)O)C(=O)NCC(=O)N1C[C@H](O)C[C@H]1C(N)=O)C(C)C)[C@@H](C)O)C(C)C)[C@@H](C)O [compound 6] (H-KCNTATCTVQRLAEQIYQFTDKDKDNVAPPTNVGSK([AEEA-AEEA-γGlu-C20 diacid])G[Hyp]-NH2; disulfide 2-7; N-terminus assumed) | – | – | 65.63 | 27.5 | – | – | – | – | – | – | – | –
